For assay [1], the target named is T1, Beta-1 adrenergic receptor (Homo sapiens, UniProt P08588). Description: Intrinsic activity (IA) for Beta-1 adrenoceptor agonism was determined as the maximal response with respect to the maximal response of isoproterenol at […]. It is filed as functional.
Target sequence in this assay (P08588 whole entry, looked up): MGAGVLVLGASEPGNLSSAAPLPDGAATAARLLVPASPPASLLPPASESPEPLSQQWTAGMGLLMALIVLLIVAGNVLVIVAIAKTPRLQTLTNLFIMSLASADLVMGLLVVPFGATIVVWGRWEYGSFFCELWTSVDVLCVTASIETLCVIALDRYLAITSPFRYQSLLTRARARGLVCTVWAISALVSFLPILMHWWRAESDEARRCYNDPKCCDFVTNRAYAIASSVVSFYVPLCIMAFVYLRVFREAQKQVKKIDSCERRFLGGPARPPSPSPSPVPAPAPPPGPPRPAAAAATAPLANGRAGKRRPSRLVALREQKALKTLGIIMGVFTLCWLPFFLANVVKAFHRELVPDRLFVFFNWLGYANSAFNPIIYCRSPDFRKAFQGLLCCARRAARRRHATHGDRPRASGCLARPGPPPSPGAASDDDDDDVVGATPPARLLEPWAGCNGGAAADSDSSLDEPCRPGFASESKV
The target of assay [2] is T2, Beta-2 adrenergic receptor (Homo sapiens, UniProt P07550). Description: (§1) Compound was tested for the antagonistic activity against Beta-2 adrenergic receptor. It is filed as functional.
Assay [3] addresses T1, Beta-1 adrenergic receptor. Put plainly: Compound was tested for the antagonistic activity against Beta-1 adrenergic receptor. It is filed as functional.
Target sequence in this assay (P08588 whole entry): as the sequence (P08588 whole entry, looked up) above
The next assay relates to Mus musculus. Put plainly: In vivo activity of compound with an increase in thermogenesis in the Beta 3 transgenic mice at an ip dose of 10 mg/kg was determined. As to conditions: route intraperitoneal; call rule not given here. It is filed as functional.
Assay [4] concerns the target T2, Beta-2 adrenergic receptor. Put plainly: In vitro agonist activity measured by increase in cAMP levels in chinese hamster ovary cells (CHO) cells expressing human Beta-2 adrenergic receptor. It is filed as functional, cell-based.
Assay [5] has as its target T1, Beta-1 adrenergic receptor. Put plainly: In vitro agonist activity measured by increase in cAMP levels in chinese hamster ovary cells (CHO) cells expressing human Beta-1 adrenergic receptor. It is filed as functional, cell-based.
Target sequence in this assay (P08588 whole entry): as the sequence (P08588 whole entry, looked up) above
Assay [6] has as its target T1, Beta-1 adrenergic receptor. Put plainly: In vitro agonist activity by increase in cAMP levels in chinese hamster ovary cells (CHO) cells stimulated by human Beta-1 Adrenoceptor was determined. It is filed as functional, cell-based.
Target sequence in this assay (P08588 whole entry): as the sequence (P08588 whole entry, looked up) above
Assay [7] concerns the target T3, Beta-3 adrenergic receptor (Homo sapiens, UniProt P13945). Description: In vitro agonist activity by increase in cAMP levels in chinese hamster ovary cells (CHO) cells stimulated by human Beta-3 Adrenoceptor was determined. It is filed as functional, cell-based.
Target sequence in this assay (P13945 whole entry): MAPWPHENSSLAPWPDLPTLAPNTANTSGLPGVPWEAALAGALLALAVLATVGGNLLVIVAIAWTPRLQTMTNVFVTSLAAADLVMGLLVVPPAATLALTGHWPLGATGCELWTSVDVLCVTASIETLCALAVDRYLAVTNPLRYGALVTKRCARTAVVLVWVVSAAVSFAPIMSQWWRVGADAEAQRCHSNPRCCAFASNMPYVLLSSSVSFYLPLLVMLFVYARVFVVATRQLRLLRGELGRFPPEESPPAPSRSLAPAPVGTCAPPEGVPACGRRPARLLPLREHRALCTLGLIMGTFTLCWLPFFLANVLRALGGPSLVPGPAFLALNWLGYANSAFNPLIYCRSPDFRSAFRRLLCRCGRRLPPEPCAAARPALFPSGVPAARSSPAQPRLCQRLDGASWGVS
The target in assay [8] is T3, Beta-3 adrenergic receptor. Description: Intrinsic activity (IA) for Beta-3 adrenoceptor agonism was determined as the maximal response with respect to the maximal response of isoproterenol at […]. It is filed as functional.
Target sequence in this assay (P13945 whole entry, looked up): as the sequence (P13945 whole entry) above
The target in assay [9] is T2, Beta-2 adrenergic receptor. Description: In vitro agonist activity by increase in cAMP levels in chinese hamster ovary cells (CHO) cells stimulated by human Beta-2 Adrenoceptor. It is filed as functional, cell-based.
Assay [10] deals with T3, Beta-3 adrenergic receptor. Put plainly: In vitro agonist activity by increase in cAMP levels in chinese hamster ovary cells (CHO) cells stimulated by human Beta-3 adrenergic receptor was determined; IA is inactive. It is filed as functional, cell-based.
Target sequence in this assay (P13945 whole entry): as above
The target of assay [11] is T3, Beta-3 adrenergic receptor. Put plainly: Intrinsic activity (IA) for Beta-3 adrenergic receptor agonism was determined as the maximal response with respect to the maximal response of isoproterenol at […].
Target sequence in this assay (P13945 whole entry, looked up): as the sequence (P13945 whole entry) above
The target in assay [12] is T2, Beta-2 adrenergic receptor. Described as §1.

pEC50, pIC50: −log10 of the molar value. Bounds are passed on as bounds.

T2 sequence (P07550 whole entry): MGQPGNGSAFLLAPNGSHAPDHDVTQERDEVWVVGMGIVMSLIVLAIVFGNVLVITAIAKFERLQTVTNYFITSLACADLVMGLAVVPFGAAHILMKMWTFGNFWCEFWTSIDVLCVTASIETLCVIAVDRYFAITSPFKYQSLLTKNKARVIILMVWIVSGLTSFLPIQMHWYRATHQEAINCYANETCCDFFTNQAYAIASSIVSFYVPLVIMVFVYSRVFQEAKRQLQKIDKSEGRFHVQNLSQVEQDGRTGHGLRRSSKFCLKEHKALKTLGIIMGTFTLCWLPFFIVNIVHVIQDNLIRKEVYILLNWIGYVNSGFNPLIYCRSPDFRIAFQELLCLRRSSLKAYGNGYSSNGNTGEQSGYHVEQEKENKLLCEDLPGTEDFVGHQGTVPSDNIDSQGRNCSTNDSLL

In assay [1], `CS(=O)(=O)Nc1cc(OC[C@@H](O)CNCC2CCN(S(=O)(=O)c3ccc(NC(=O)NCc4cc(F)ccc4F)cc3)CC2)ccc1O` returned an Intrinsic activity of 0.49. The pIC50 in [2] was 6.57; in assay [3], 5.21. This compound also yielded a Thermogenesis in the assay with Mus musculus of 18. For the same compound, the pEC50 in assay [4] is 6.34; in assay [5], 6.45.
With `O=C(Nc1ccc(S(=O)(=O)N2CCC(CNC[C@H](O)COc3ccc(O)cc3)CC2)cc1)NC1CCCCC1`, in assay [5], the pEC50 is 5.99.
As for `O=C(Nc1ccccc1)Nc1ccc(S(=O)(=O)N2CCC(CNC[C@H](O)COc3ccc(O)cc3)CC2)cc1`, the negative-log EC50 (pEC50) in assay [5] is 6.31.
For the compound `CCCCCCN1CCC(CNC[C@H](O)COc2cccc3[nH]c4ccccc4c23)CC1`, the pEC50 in assay [4] and in [5] was < 6.00 in each case.
In the case of `O=C(O)c1cccc(NC(=O)N2CCC(CNC[C@H](O)COc3cccc4[nH]c5ccccc5c34)CC2)c1`, the Intrinsic activity in assay [1] came to 0.05; in assay [8] it was 0.29. Moreover, the pEC50 in assay [6] is < 6.00; in assay [7], 7.15; in assay [9], < 6.00.
For the compound `O=C(NCc1cc(F)ccc1F)Nc1ccc(S(=O)(=O)N2CCC(CNC[C@H](O)COc3ccc(O)c(F)c3)CC2)cc1`, the pEC50 in assay [5] is 6.28.
With `CCCCCCCCNC(=O)Nc1ccc(S(=O)(=O)N2CCC(CNC[C@H](O)COc3ccc(O)c4c3CCC(=O)N4)CC2)cc1`, in [1], the Intrinsic activity was 0.63. In addition, the pEC50 was 6.17 in assay [4] and 6.41 in [5].
For the compound `O=C(NCCCc1cccs1)Nc1ccc(S(=O)(=O)N2CCC(CNC[C@H](O)COc3ccc(O)cc3)CC2)cc1`, in assay [5], the pEC50 is 5.69.
In the case of `CCCCCCNC(=O)Nc1ccc(S(=O)(=O)N2CCC(CNC[C@H](O)COc3cccc4[nH]c5ccccc5c34)CC2)cc1`, the negative-log EC50 (pEC50) in assay [4] and in assay [5] was < 6.00 each time.
In [5], `CCCCCCNC(=O)Nc1ccc(S(=O)(=O)N2CCC(CNC[C@H](O)COc3ccc(O)cc3)CC2)cc1` gave a pEC50 of 4.96.
Turning to `O[C@@H](CNCC1CCN(c2ncccc2C(F)(F)F)CC1)COc1cccc2[nH]c3ccccc3c12`, the EC50 entry in [10] and in assay [11] was “Not Active” throughout.
For the compound `CCCCCCCCNC(=O)Nc1ccc(S(=O)(=O)N2CCC(CNC[C@H](O)COc3ccc(O)cc3)CC2)cc1`, the pIC50 was 8.40 in [12] and 7.57 in assay [3]. In addition, in the assay with Mus musculus, the Thermogenesis was found to be 30. Moreover, the pEC50 in [5] was 6.05.
`O=C(NCc1cc(F)ccc1F)Nc1ccc(S(=O)(=O)N2CCC(CNC[C@H](O)COc3ccc(O)cc3)CC2)cc1` showed a pEC50 in [5] of 6.00.
As to `O[C@@H](CNCC1CCN(CCC(F)(F)F)CC1)COc1cccc2[nH]c3ccccc3c12`, the pEC50 in assay [4] is < 6.00; in assay [5], 6.38.

The record behind these values is ChEMBL document CHEMBL1134913, “Novel substituted 4-aminomethylpiperidines as potent and selective human beta3-agonists. Part 1: aryloxypropanolaminomethylpiperidines” (Bioorg Med Chem Lett, 2002).
